In US11230547B2, “Purine inhibitors of human phosphatidylinositol 3-kinase delta” (Merck Sharp & Dohme Corp., priority 2017, dated 2022):

Key:
PI3Kdelta = PI3Kdelta (Homo sapiens (Human), UniProt O00329); assay: HTRF PI3K biochemical assay, delta isoform; details: 0.3 nM enzyme, 100 uM ATP, 5 uM PIP2, form screened per table
Description: (§1) HTRF PI3K Biochemical Assay to Measure Intrinsic Potency of Compound Inhibitors
(§2) The PI3-Kinase biochemical assays were developed to measure the intrinsic potency and compound dependent inhibition of the alpha, beta, delta, and gamma PI3K isoform enzymes. This assay was developed and further optimized from a kit produced by Upstate (Millipore catalog #33-047) (Millipore Sigma, Billerica Mass., USA) and has been configured for high throughput screening (HTS) and structure-activity relationship (SAR) screening. Briefly, this procedure exploits the exquisite specificity and high affinity binding of […] phosphatidyl(3,4,5)triphosphate (PIP3) to the GRP1 pleckstrin homology (PH) domain to generate the signal. In the absence of PIP3, an HTRF (Homogeneous Time-Resolved Fluorescence energy transfer) complex is formed consisting of europium (u)-labeled anti-GST, GST tagged GRP1-PH domain, biotin-PIP3 (biotinylated-PIP3) and streptavidin conjugated APC (Allophycocyanin). The native PIP3 produced by PI3-Kinase activity disrupts in a competitive manner the biotin-PIP3 from the pleckstrin homology (PH) domain, resulting in the loss of energy transfer (HTRF complex) and a decrease in the signal. The format of this assay is the same for all 4 isoforms of PI3K; the differences lie in the concentration of enzyme used to achieve robust assay window. The alpha, beta, and delta assays are run at 0.5, 1, and 0.3 nM enzymes and the gamma assay is run at 5 nM enzyme. The ATP concentration is 100 uM in the alpha, beta, and delta assays and 50 uM adenosine triphosphate (ATP) in the gamma assay. All reactions are run at 5 uM PIP2.
(§3) Compounds are serially diluted (3-fold in 100% DMSO) across a 384-well polypropylene source plated from column 3 to column 12 and column 13 to column 22, to yield 10 concentration dose response for each test compound. Columns 1, 2, 23 and 24 contain either only DMSO or pharmacological known control inhibitor. Once titrations are made, 2.5 nL of the compounds on 384 well plates are reformatted and transferred by acoustic dispense in quadruplicates to a 1536 assay plate (Greiner) to assay across all four PI3K isoform enzymes.
(§4) The PI3-Kinase biochemical assay was optimized using the HTRF kit provided by Upstate (Millipore). The assay kit contains six reagents: 1) 4× Reaction Buffer; 2) native PIP2 (substrate); 3) Stop (EDTA); 4) Detection Mix A (Streptavidin-APC); 5) Detection Mix B (Eu-labeled Anti-GST plus GST-tagged PH-domain); 6) Detection Mix C. In addition, the following items were obtained or purchased; PI3Kinase (catalog #'s alpha 14-602, beta 14-603, gamma 14-558 and delta 14-604 from Upstate Biotechnology now EMD Millipore, Mahopac, N.Y., USA), dithiothreitol (Sigma-Aldrich Corp. (St. Louis, Mo., USA) Catalog #D-5545), Adenosine-5′ triphosphate (InVitrogen (Waltham, Mass., USA), Cat#AS001A), native PIP3 (PI(3,4,5)P3, diC8, H^+, CELLSIGNALS, INC., (Columbus, Ohio, USA) Cat #907) DMSO ((Sigma-Aldrich Corp. (St. Louis, Mo., USA) Catalog #472301).
(§5) PI3Kinase Reaction Buffer is prepared by dilution the stock 1:4 with de-ionized water. DTT (DL-Dithiothreitol), phosphatidylinositol 4,5-bisphosphate (PIP2) and Biotin-PIP3 were added to 1536 assay plate at a final concentration of 5 mM, […] and 25 nM on the day of use. Enzyme addition and compound pre-incubation are initiated by the addition of 1.25 ul of PI3K (at twice its final concentration) in the 1× reaction buffer to all wells using a BioRaptr™ (Beckman Coulter, Waltham, Mass. USA). Plates are incubated at room temperature for 15 minutes. Reactions are initiated by addition of 1.25 ul of 2× substrate solution (PIP2 and ATP in 1× reaction buffer) using BioRaptr™. Plates are incubated in humidified chamber at room temperature for one hour. Reactions are quenched by addition of 0.625 uL of stop solution to all wells using the BioRaptr™. […]

PI3Kalpha = PI3Kalpha (Homo sapiens (Human), UniProt P42336); assay: HTRF PI3K biochemical assay, alpha isoform (selectivity versus delta); details: relative ratio PI3K-alpha IC50 value / PI3K-delta IC50 value
Description: as §1, §2, §3, §4, §5

Sequence of PI3Kalpha (P42336 whole entry, canonical isoform): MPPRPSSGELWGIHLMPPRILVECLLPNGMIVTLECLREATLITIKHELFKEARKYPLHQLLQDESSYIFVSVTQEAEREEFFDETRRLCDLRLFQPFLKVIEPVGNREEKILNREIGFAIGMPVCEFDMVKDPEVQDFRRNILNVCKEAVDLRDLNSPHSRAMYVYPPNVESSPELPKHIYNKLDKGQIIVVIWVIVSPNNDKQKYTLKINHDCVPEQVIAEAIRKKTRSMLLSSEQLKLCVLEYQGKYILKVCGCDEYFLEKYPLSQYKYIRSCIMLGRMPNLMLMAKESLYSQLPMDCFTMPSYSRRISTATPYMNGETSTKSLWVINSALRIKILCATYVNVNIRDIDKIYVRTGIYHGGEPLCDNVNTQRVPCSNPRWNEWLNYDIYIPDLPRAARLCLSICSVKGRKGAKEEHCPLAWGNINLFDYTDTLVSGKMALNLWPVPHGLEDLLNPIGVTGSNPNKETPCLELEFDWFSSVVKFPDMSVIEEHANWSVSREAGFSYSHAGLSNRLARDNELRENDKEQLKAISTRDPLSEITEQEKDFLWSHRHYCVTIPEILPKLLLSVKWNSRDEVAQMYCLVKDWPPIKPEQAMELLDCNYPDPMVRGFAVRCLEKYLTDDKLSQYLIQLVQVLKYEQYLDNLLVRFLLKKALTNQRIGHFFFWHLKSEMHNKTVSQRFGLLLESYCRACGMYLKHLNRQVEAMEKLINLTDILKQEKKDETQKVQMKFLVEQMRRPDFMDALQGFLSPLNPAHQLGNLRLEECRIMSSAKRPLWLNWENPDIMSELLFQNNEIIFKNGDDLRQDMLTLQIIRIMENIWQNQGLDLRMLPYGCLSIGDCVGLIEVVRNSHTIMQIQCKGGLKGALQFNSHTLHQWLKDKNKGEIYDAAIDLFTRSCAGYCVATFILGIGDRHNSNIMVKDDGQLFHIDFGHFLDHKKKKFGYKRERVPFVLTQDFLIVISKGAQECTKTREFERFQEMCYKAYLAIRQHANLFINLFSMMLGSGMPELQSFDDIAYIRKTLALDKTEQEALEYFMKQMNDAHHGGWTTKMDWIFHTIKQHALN
Sequence of PI3Kalpha (P27986 whole entry partner, canonical isoform): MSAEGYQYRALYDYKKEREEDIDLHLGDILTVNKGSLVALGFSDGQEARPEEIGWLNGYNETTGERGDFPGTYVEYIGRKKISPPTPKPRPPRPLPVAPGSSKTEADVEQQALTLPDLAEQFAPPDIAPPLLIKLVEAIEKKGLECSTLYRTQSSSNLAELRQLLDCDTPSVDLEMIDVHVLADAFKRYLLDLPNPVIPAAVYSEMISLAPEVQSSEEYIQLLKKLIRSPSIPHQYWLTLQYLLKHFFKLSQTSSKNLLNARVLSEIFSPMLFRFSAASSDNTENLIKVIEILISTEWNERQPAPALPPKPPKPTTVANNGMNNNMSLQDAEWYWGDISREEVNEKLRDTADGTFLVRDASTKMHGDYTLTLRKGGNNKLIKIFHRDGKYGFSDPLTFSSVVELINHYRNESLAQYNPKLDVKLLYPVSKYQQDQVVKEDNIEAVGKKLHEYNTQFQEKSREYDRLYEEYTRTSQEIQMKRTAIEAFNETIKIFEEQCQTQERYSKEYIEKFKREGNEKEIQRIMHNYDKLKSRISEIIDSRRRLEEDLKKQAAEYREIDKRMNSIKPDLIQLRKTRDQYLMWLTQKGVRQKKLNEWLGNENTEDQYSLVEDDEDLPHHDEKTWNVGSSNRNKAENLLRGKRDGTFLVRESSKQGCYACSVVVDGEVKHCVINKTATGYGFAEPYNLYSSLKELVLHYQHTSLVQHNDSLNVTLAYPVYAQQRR
Sequence of PI3Kdelta (O00329 whole entry, canonical isoform): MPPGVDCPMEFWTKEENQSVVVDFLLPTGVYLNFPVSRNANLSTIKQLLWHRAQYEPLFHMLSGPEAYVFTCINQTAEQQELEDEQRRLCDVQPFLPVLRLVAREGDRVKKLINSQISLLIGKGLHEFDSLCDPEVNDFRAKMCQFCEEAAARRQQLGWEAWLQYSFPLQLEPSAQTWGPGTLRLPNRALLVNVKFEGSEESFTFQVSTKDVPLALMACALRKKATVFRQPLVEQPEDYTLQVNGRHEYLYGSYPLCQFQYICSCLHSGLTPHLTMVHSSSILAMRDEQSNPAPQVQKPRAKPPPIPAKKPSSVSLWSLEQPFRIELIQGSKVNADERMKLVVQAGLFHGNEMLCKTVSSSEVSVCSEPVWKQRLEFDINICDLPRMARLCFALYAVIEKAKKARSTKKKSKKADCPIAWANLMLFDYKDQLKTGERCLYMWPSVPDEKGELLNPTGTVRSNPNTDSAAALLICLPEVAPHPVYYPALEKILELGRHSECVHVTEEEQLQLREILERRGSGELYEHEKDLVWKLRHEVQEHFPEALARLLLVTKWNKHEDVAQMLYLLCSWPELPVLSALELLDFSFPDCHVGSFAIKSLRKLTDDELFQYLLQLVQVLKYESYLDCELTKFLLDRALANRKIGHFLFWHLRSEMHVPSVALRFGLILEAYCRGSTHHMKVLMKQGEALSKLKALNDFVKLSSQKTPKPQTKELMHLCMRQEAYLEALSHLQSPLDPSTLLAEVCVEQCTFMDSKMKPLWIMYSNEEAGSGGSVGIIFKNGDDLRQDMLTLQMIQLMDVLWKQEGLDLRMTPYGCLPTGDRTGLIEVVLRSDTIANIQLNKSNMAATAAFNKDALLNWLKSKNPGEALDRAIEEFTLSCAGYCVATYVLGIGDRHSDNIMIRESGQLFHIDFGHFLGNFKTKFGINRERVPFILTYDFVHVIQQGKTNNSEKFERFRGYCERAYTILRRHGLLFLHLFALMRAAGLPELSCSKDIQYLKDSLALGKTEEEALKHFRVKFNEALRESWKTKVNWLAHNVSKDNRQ
Sequence of PI3Kdelta (P27986 whole entry partner, canonical isoform): as the sequence (P27986 whole entry partner, canonical isoform) above

| Compound | IC50 (PI3Kdelta) [nM] | Selectivity versus PI3Kalpha (PI3Kalpha) |
| --- | --- | --- |
| N#Cc1cnc(-c2cccc3cnccc23)nc1N1C[C@@H]2CC1CN2c1cccc(F)c1 (stereo in doubt) [Compound 1-21, 4-[(1R,4S)-5-(3-fluorophenyl)-2,5-diazabicyclo[2.2.1]hept-2-yl]-2-isoquinolin-5-ylpyrimidine-5-carbonitrile] | 110 | >10 |
| N#Cc1cnc(N2CCc3[nH]ncc3C2)nc1N1CC2C[C@H]1CN2c1cccc(F)c1 (stereo in doubt) [Compound 1-22, 4-[(1S,4R)-5-(3-fluorophenyl)-2,5-diazabicyclo[2.2.1]hept-2-yl]-2-(1,4,6,7-tetrahydro-5H-pyrazolo[4,3-c]pyridin-5-yl)pyrimidine-5-carbonitrile] | 950 | 10 |
| N#Cc1cnc(N2CCOCC2)nc1N1CC2C[C@H]1CN2c1cccc(F)c1 (stereo in doubt) [Compound 1-23, 4-[(1S,4R)-5-(3-fluorophenyl)-2,5-diazabicyclo[2.2.1]hept-2-yl]-2-morpholin-4-ylpyrimidine-5-carbonitrile] | 400 | >10 |
| Cn1cc(-c2ncc(C#N)c(N3CC4C[C@H]3CN4C(=O)C3CC3)n2)cn1 (stereo in doubt) [Compound 2-1, 4-[(1S,4R)-5-(cyclopropylcarbonyl)-2,5-diazabicyclo[2.2.1]hept-2-yl]-2-(1-methyl-1H-pyrazol-4-yl)pyrimidine-5-carbonitrile] | 160 | >10 |
| Cn1cc(-c2ncc(C#N)c(N3CC4C[C@H]3CN4S(=O)(=O)C3CC3)n2)cn1 (stereo in doubt) [Compound 2-2, 4-[(1S,4R)-5-(cyclopropylsulfonyl)-2,5-diazabicyclo[2.2.1]hept-2-yl]-2-(1-methyl-1H-pyrazol-4-yl)pyrimidine-5-carbonitrile] | 1200 | >10 |
| Cn1cc(-c2ncc(C#N)c(N3CC4C[C@H]3CN4CC3CC3)n2)cn1 (stereo in doubt) [Compound 2-3, 4-[(1S,4R)-5-(cyclopropylmethyl)-2,5-diazabicyclo[2.2.1]hept-2-yl]-2-(1-methyl-1H-pyrazol-4-yl)pyrimidine-5-carbonitrile] | 1400 | 8 |
| CCNC(=O)N1C[C@@H]2CC1CN2c1nc(-c2cnn(C)c2)ncc1C#N (stereo in doubt) [Compound 2-4, (1R,4S)-5-[5-cyano-2-(1-methyl-1H-pyrazol-4-yl)pyrimidin-4-yl]-N-ethyl-2,5-diazabicyclo[2.2.1]heptane-2-carboxamide] | 2200 | 5 |
| Cn1cc(-c2ncc(C#N)c(N3CC4C[C@H]3CN4C(=O)C(C)(C)C)n2)cn1 (stereo in doubt) [Compound 2-5, 4-[(1S,4R)-5-(2,2-dimethylpropanoyl)-2,5-diazabicyclo[2.2.1]hept-2-yl]-2-(1-methyl-1H-pyrazol-4-yl)pyrimidine-5-carbonitrile] | 190 | >10 |
| Cn1cc(-c2ncc(C#N)c(N3CC4C[C@H]3CN4C(=O)C(C)(C)CF)n2)cn1 (stereo in doubt) [Compound 2-6, 4-[(1S,4R)-5-(3-fluoro-2,2-dimethylpropanoyl)-2,5-diazabicyclo[2.2.1]hept-2-yl]-2-(1-methyl-1H-pyrazol-4-yl)pyrimidine-5-carbonitrile] | 160 | >10 |
| Cn1cc(-c2ncc(C#N)c(N3CC4C[C@H]3CN4C(=O)C3(C)COC3)n2)cn1 (stereo in doubt) [Compound 2-7, 4-{(1S,4R)-5-[(3-methyloxetan-3-yl)carbonyl]-2,5-diazabicyclo[2.2.1]hept-2-yl}-2-(1-methyl-1H-pyrazol-4-yl)pyrimidine-5-carbonitrile] | 320 | >10 |
